Our source for the IC50 values is US7713994B2 (Wyeth LLC, priority 2005, dated 2010).

The subject of one assay is LoVo. Briefly: Cytotoxicity assay (SRB), LoVo. Type of assay: cell-based. The note with it: Homo sapiens, LoVo, 72 h, LoVo cells, SRB, three days; read-out: In Vitro Cellular Activity IC50 LOVO. The method in brief:
(§1)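 Overnight-seeded monolayers (4000–12000 cells/well by line) receive compound in 5% FBS medium at 37 °C, 7% CO2. After 3 d, or 6 d for BT474, cellular protein is fixed with cold TCA, stained with SRB and read at 540 nm against untreated wells.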

For the next assay, the system named is BT474. Briefly: Cytotoxicity assay (SRB), BT474. Type of assay: cell-based. The note with it: Homo sapiens, BT-474, 144 h, BT474 cells, SRB, 6 days; read-out: In Vitro Cellular Activity IC50 BT474. In a few lines: as §1
The next assay deals with HCT-116. Briefly: Cytotoxicity assay (SRB), HCT-116. Format: cell-based. As to conditions: Homo sapiens, HCT-116, 72 h, HCT116 cells, SRB, three days; read-out: In Vitro Cellular Activity IC50 HCT116. The method in brief:
as §1

A further assay has as its target T1, cyclin E/CDK2 enzyme (Homo sapiens, UniProt P24941).
T1 construct: made in house; host or cells: Sf9 insect cells, recombinant baculovirus
In words: CDK2 ELISA kinase assay (phospho-Rb ser 795 detection). Format: biochemical. The note with it: In Vitro Enzyme Assays, read-out: CDK2 IC50. In a few lines: (§2)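 Partially purified Sf9-expressed cyclin D1/CDK4, cyclin E/CDK2 or cyclin B/CDK1 phosphorylated plate-bound GST-Rb C-terminal fragment with 200 μM ATP at 30° C for 1 h.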
For orientation: In an ELISA, binding on a coated surface is turned into a signal by an enzyme label.

Another assay deals with T2, cyclin B/CDK1 enzyme (Homo sapiens, UniProt P06493).
T2 construct: purchased New England BioLabs; host or cells: Sf9 insect cells, recombinant baculovirus
In words: CDK1 ELISA kinase assay (phospho-Rb ser 795 detection). Format: biochemical. As to conditions: In Vitro Enzyme Assays, read-out: CDK1 IC50. The method in brief: as §2

The target of another assay is T3, cyclin D1/cdk 4 enzyme (Homo sapiens, UniProt P11802).
T3 construct: made in house; host or cells: Sf9 insect cells, recombinant baculovirus
In words: CDK4 ELISA kinase assay (phospho-Rb ser 795 detection). As to conditions: In Vitro Enzyme Assays, 200 μM ATP, read-out: CDK4 IC50. Type of assay: biochemical. In a few lines:
as §2

The next assay has as its system MCF-7. In words: Cytotoxicity assay (SRB), MCF-7. Format: cell-based. The note with it: Homo sapiens, MCF7, 72 h, MCF-7 cells, SRB, three days; read-out: In Vitro Cellular Activity IC50 MCF-7. The method in brief:
as §1

SMILES strings stand for the structures.

T2 sequence (P06493 whole entry): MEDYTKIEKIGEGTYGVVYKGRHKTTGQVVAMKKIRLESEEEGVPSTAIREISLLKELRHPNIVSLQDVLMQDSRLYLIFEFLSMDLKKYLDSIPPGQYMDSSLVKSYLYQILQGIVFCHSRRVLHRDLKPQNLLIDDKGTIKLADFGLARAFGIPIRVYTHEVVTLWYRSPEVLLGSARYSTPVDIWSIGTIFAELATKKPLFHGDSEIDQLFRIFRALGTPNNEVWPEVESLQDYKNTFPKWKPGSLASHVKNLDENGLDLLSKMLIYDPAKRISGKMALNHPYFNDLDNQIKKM
T2 sequence (P14635 whole entry partner): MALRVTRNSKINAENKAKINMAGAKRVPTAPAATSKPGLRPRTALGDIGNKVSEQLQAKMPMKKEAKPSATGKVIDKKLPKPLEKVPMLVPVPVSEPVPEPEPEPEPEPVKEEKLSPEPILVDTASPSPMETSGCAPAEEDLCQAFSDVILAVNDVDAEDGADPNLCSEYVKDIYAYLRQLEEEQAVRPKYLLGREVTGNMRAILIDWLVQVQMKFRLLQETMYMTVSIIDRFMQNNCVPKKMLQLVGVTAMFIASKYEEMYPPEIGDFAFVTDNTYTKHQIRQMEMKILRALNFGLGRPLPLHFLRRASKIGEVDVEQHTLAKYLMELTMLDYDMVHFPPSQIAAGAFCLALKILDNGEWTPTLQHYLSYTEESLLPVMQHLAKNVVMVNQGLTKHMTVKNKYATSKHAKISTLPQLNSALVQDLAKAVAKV
T3 sequence (P11802 whole entry, species assumed): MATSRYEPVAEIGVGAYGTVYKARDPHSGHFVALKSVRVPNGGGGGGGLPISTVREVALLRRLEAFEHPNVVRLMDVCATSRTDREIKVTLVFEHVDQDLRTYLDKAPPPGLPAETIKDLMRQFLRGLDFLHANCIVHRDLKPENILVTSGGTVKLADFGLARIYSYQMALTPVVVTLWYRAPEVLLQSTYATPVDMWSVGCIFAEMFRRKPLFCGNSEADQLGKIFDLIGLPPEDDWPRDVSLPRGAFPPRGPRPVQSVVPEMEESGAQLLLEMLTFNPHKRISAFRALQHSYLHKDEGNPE
T3 sequence (P24385 whole entry partner, species assumed): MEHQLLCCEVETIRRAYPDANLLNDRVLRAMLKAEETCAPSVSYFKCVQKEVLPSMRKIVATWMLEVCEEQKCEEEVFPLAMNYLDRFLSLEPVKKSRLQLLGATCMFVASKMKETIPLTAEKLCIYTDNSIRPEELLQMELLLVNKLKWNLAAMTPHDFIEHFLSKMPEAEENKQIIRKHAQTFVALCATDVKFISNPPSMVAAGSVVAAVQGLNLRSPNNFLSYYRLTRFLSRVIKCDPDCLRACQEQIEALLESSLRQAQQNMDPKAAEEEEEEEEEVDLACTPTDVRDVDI

What is called IC50 is the concentration at which inhibition is half-maximal. For the compound `COc1ccc(-c2ccc3c(c2)/C(=C/Nc2ccc(N4CCN(C)CC4)cc2)C(=O)NC3=O)cc1` [Example 114, (4Z)-6-(4-methoxyphenyl)-4-({[4-(4-methylpiperazin-1-yl)phenyl]amino}methylene)-isoquinoline-1,3(2H,4H)-dione], the 50% inhibitory concentration (IC50) in the assay on LoVo was 6.5 µM; in the assay on BT474, 5 µM; in the assay on HCT-116, 1900 nM; at cyclin E/CDK2 enzyme it was over 50 µM; on cyclin B/CDK1 enzyme it was over 50 µM; at cyclin D1/cdk 4 enzyme it was 7400 nM. For the same compound, the IC50 with MCF-7 turned out to be 6.3 µM.

Consider `CN1CCN(c2ccc(N/C=C3\C(=O)NC(=O)c4ccc(-c5ccc(C=O)cc5)cc43)cc2)CC1` [Example 115, 4-[(4Z)-4-({[4-(4-Methylpiperazin-1-yl)phenyl]amino}methylene)-1,3-dioxo-1,2,3,4-tetra-hydroisoquinolin-6-yl]benzaldehyde], for which the IC50 in the assay on LoVo was found to be 6.5 µM; in the assay on BT474, 6.7 µM; in the assay with HCT-116 it was 1600 nM; at cyclin E/CDK2 enzyme it was 7.7 µM; at cyclin B/CDK1 enzyme, 8.2 µM; on cyclin D1/cdk 4 enzyme, 130 nM. The IC50 with MCF-7 stood at 4.7 µM.

On to `COc1cccc(-c2ccc3c(c2)/C(=C/Nc2ccc(CN4CCCCC4)cc2)C(=O)NC3=O)c1` [Example 117, (4Z)-6-(3-Methoxyphenyl)-4-({[4-(piperidin-1-ylmethyl)phenyl]amino}methylene)-isoquinoline-1,3(2H,4H)-dione], for which the IC50 in the assay on LoVo was 2.4 µM; with BT474, 3 µM; in the assay on HCT-116, 1400 nM; on cyclin E/CDK2 enzyme, over 50 µM; on cyclin B/CDK1 enzyme, over 50 µM; on cyclin D1/cdk 4 enzyme, 27800 nM. Besides, in the assay on MCF-7, the concentration for half-maximal inhibition (IC50) is 2.7 µM.

For the compound `CCCOc1ccc(CN/C=C2\C(=O)NC(=O)c3ccc(Br)cc32)cc1O` [Example 130, (4Z)-6-Bromo-4-{[(3-hydroxy-4-propoxybenzyl)amino]methylene}isoquinoline-1,3(2H,4H)-dione], the IC50 turned out to be 0.94 µM in the assay with LoVo; 0.65 µM in the assay on BT474; 730 nM in the assay on HCT-116; 34.5 µM on cyclin E/CDK2 enzyme; 42.5 µM on cyclin B/CDK1 enzyme; 350 nM at cyclin D1/cdk 4 enzyme. Besides, in the assay with MCF-7, the half-inhibitory concentration (IC50) came out at 4 µM.

As to `O=C1NC(=O)c2ccc(Br)cc2/C1=C/NCc1ccc(OCCN2CCCC2)c(O)c1` [Example 143, (4Z)-6-Bromo-4-({[3-hydroxy-4-(2-pyrrolidin-1-ylethoxy)benzyl]amino}methylene) isoquinoline-1,3(2H,4H)-dione], the IC50 in the assay on LoVo came to 8.8 µM; in the assay on BT474, 5.7 µM; with HCT-116, 3000 nM; at cyclin E/CDK2 enzyme it was 1.1 µM; on cyclin B/CDK1 enzyme, 13.6 µM; at cyclin D1/cdk 4 enzyme, 60 nM. Besides, the IC50 in the assay on MCF-7 came to 4.3 µM.

For `CC(=O)Nc1ccc(CN/C=C2\C(=O)NC(=O)c3ccc(-c4ccsc4)cc32)cc1O` [Example 145, N-[4-({[(Z)-(1,3-Dioxo-6-thien-3-yl-2,3-dihydroisoquinolin-4(1H)-′ylidene)methyl]amino}methyl)-2-hydroxyphenyl]acetamide], the IC50 in the assay on LoVo is 16 µM; with BT474, over 50 µM; with HCT-116, 32500 nM; at cyclin E/CDK2 enzyme, 6.1 µM; on cyclin B/CDK1 enzyme it was 26.3 µM; on cyclin D1/cdk 4 enzyme it was 4 nM. For the same compound, the half-inhibitory concentration (IC50) with MCF-7 was over 50 µM.

For the compound `O=C1NC(=O)c2ccc(Br)cc2/C1=C/NCc1ccc(OCc2ccccc2)c(O)c1` [Example 147, (4Z)-4-({[4-(Benzyloxy)-3-hydroxybenzyl]amino}methylene)-6-bromoisoquinoline-1,3(2H,4H)-dione], the IC50 was 40 µM in the assay with LoVo; over 50 µM with BT474; 38000 nM in the assay with HCT-116; 27.7 µM on cyclin E/CDK2 enzyme; over 50 µM at cyclin B/CDK1 enzyme; 4600 nM at cyclin D1/cdk 4 enzyme. For the same compound, the half-maximal inhibitory concentration (IC50) in the assay on MCF-7 was 36 µM.

With `CCCCOc1ccc(CN/C=C2\C(=O)NC(=O)c3ccc(Br)cc32)cc1O` [Example 148, (4Z)-6-Bromo-4-{[(4-butoxy-3-hydroxybenzyl)amino]methylene}isoquinoline-1,3(2H,4H)-dione], the half-maximal inhibitory concentration (IC50) in the assay with LoVo is 22 µM; in the assay with BT474, 16 µM; in the assay with HCT-116, 18000 nM; on cyclin E/CDK2 enzyme, 31.7 µM; at cyclin B/CDK1 enzyme, over 50 µM; on cyclin D1/cdk 4 enzyme it was 440 nM. Besides, the half-maximal inhibitory concentration (IC50) in the assay on MCF-7 came to 25 µM.

Take `CCCCCCOc1ccc(CN/C=C2\C(=O)NC(=O)c3ccc(Br)cc32)cc1O` [Example 150, (4Z)-6-Bromo-4-({[4-(hexyloxy)-3-hydroxybenzyl]amino}methylene)isoquinoline-1,3(2H,4H)-dione]: the half-maximal inhibitory concentration (IC50) in the assay with LoVo is over 50 µM; in the assay on BT474, over 50 µM; in the assay with HCT-116, 49000 nM; on cyclin E/CDK2 enzyme it was over 50 µM; on cyclin B/CDK1 enzyme, over 50 µM; on cyclin D1/cdk 4 enzyme, 7200 nM. The half-inhibitory concentration (IC50) in the assay with MCF-7 was found to be 46 µM.

With `CC(=O)Nc1ccc(CN/C=C2\C(=O)NC(=O)c3ccc(I)cc32)cc1O` [Example 151, N-[2-Hydroxy-4-({[(Z)-(6-iodo-1,3-dioxo-2,3-dihydroisoquinolin-4(1H)-′ylidene)methyl]amino}methyl)phenyl]acetamide], the half-maximal inhibitory concentration (IC50) in the assay with LoVo is 1.9 µM; in the assay on BT474 it was 0.9 µM; with HCT-116, 1300 nM; at cyclin E/CDK2 enzyme, 1.8 µM; at cyclin B/CDK1 enzyme, 36.4 µM; on cyclin D1/cdk 4 enzyme, 30 nM. In addition, the half-maximal inhibitory concentration (IC50) in the assay on MCF-7 was 6.6 µM.

Regarding `CN1CCN(c2ccc(N/C=C3\C(=O)NC(=O)c4ccc(-c5ccc(C#N)cc5)cc43)cc2)CC1` [Example 153, 4-(4-{[4-(4-Methyl-piperazin-1-yl)-phenylamino]-methylene}-1,3-dioxo-1,2,3,4-tetrahydro-isoquinolin-6-yl)-benzonitrile], the IC50 worked out at 3.7 µM with LoVo; 3.4 µM in the assay on BT474; 1100 nM in the assay on HCT-116; 4.3 µM at cyclin E/CDK2 enzyme; 4.3 µM at cyclin B/CDK1 enzyme; 800 nM on cyclin D1/cdk 4 enzyme. For the same compound, in the assay with MCF-7, the IC50 was 3.4 µM.

On to `CN1CCN(c2ccc(N/C=C3\C(=O)NC(=O)c4ccc(-c5cccc(F)c5)cc43)cc2)CC1` [Example 154, 6-(3-Fluoro-phenyl)-4-{[4-(4-methyl-piperazin-1-yl)-phenylamino]-methylene}-4H-isoquinoline-1,3-dione], for which the IC50 in the assay on LoVo was 3.2 µM; in the assay on BT474 it was 3 µM; with HCT-116 it was 2200 nM; at cyclin E/CDK2 enzyme, over 50 µM; at cyclin B/CDK1 enzyme, over 50 µM; at cyclin D1/cdk 4 enzyme, 3300 nM. For the same compound, in the assay on MCF-7, the half-inhibitory concentration (IC50) amounted to 2.7 µM.

Turning to `COc1ccc(CN(C)/C=C2\C(=O)NC(=O)c3ccc(Br)cc32)cc1O` [Example 163, (4Z)-6-Bromo-4-{[(3-hydroxy-4-methoxybenzyl)(methyl)amino]methylene}isoquinoline-1,3(2H,4H)-dione], the IC50 was 34 µM with LoVo; 38 µM in the assay with BT474; 38000 nM in the assay on HCT-116; 44.4 µM at cyclin E/CDK2 enzyme; over 50 µM at cyclin B/CDK1 enzyme; over 50000 nM at cyclin D1/cdk 4 enzyme. Moreover, the IC50 in the assay on MCF-7 amounted to 38 µM.

As to `CCOc1ccc(CN/C=C2\C(=O)NC(=O)c3ccc(Br)cc32)cc1O` [Example 166, (4Z)-6-Bromo-4-{[(4-ethoxy-3-hydroxybenzyl)amino]methylene}isoquinoline-1,3(2H,4H)-dione], the IC50 is 2.2 µM in the assay on LoVo; 1.4 µM in the assay on BT474; 1300 nM with HCT-116; 45.5 µM on cyclin E/CDK2 enzyme; over 50 µM on cyclin B/CDK1 enzyme; 30 nM on cyclin D1/cdk 4 enzyme. For the same compound, in the assay with MCF-7, the IC50 turned out to be 19 µM.

In the case of `O=C1NC(=O)c2ccc(-c3ccco3)cc2C1=CNc1ccc(CN2CCCC2)cc1` [Example 169, 6-Furan-2-yl-4-[(4-pyrrolidin-1-ylmethyl-phenylamino)-methylene]-4H-isoquinoline-1,3-dione], the IC50 in the assay with LoVo is 5.2 µM; in the assay with BT474 it was 1.8 µM; in the assay on HCT-116, 2600 nM; on cyclin E/CDK2 enzyme, over 50 µM; at cyclin B/CDK1 enzyme, over 50 µM; on cyclin D1/cdk 4 enzyme, 200 nM. Also, in the assay with MCF-7, the IC50 turned out to be 2.5 µM.

As to `O=C1NC(=O)c2ccc(Br)cc2/C1=C/NCc1cc(O)ccc1O` [Example 173, (4Z)-6-Bromo-4-{[(2,5-dihydroxybenzyl)amino]methylene}isoquinoline-1,3(2H,4H)-dione], the IC50 in the assay on LoVo is 17 µM; in the assay on BT474 it was 8.3 µM; in the assay with HCT-116 it was 11000 nM; at cyclin E/CDK2 enzyme, 4.7 µM; on cyclin B/CDK1 enzyme it was over 50 µM; at cyclin D1/cdk 4 enzyme it was 110 nM. Moreover, the IC50 with MCF-7 came out at 12 µM.

For the compound `O=C1NC(=O)c2ccc(Br)cc2/C1=C/NCc1ccc(O)c(O)c1O` [Example 175], the half-inhibitory concentration (IC50) in the assay with LoVo was over 50 µM; in the assay with BT474, over 50 µM; with HCT-116, 28000 nM; on cyclin E/CDK2 enzyme, 18.5 µM; at cyclin B/CDK1 enzyme it was 3.1 µM; on cyclin D1/cdk 4 enzyme, 4500 nM. For the same compound, the IC50 with MCF-7 was over 50 µM.
